Measurements published in PMC6352943, “Novel pyrazolo[3,4-d]pyrimidines: design, synthesis, anticancer activity, dual EGFR/ErbB2 receptor tyrosine kinases inhibitory activity, effects on cell cycle profile and caspase-3-mediated apoptosis” (Journal of Enzyme Inhibition and Medicinal Chemistry, 2019).

Experiments:
Experiment in all cases: NCI 60 cell line single dose screen (SRB)
Format in all cases: cell-based
[1] = test system: HCC-2998; conditions: Homo sapiens; HCC-2998 (colon cancer), single dose 10^−5 M, 48 h; read-out: Growth inhibition percentage
Description: (§1) Anticancer activity screening of the newly synthesised compounds was measured in vitro utilising 60 different human tumour cell lines provided by US National Cancer Institute according to previously reported standard procedure[27–29] as follows: Cells are inoculated into 96-well microtitre plates in 100 ml. After cell inoculation, the microtitre plates are incubated at 37 °C, 5% CO2, 95% air and 100% relative humidity for 24 h prior to addition of experimental compounds. After 24 h, two plates of each cell line are fixed in situ with TCA, to represent a measurement of the cell population for each cell line at the time of drug addition (Tz). Experimental compounds are solubilised in dimethyl sulphoxide at 400-fold the desired final maximum test concentration and stored frozen prior to use. At the time of compound addition, an aliquot of frozen concentrate is thawed and diluted to twice the desired final maximum test concentration with complete medium containing […] gentamicin. Aliquots of […] of the compounds dilutions are added to the appropriate microtitre wells already containing 100 ml of medium, resulting in the required final compound concentration. Following compound addition, the plates are incubated for an additional 48 h at 37 °C, 5% CO2, 95% air, and 100% relative humidity. For adherent cells, the assay is terminated by the addition of cold trichloroacetic acid (TCA). Cells are fixed in situ by the gentle addition of 50 ml of cold 50% (w/v) TCA (final concentration, 10% TCA) and incubated for 60 min at 4 °C. The supernatant is discarded, and the plates are washed five times with tap water and air-dried. Sulphorhodamine B (SRB) solution (100 ml) at 0.4% (w/v) in 1% acetic acid is added to each well, and plates are incubated for 10 min at room temperature. After staining, unbound dye is removed by washing five times with 1% acetic acid and the plates are air-dried. Bound stain is subsequently solubilised with 10 mM trizma base, and the absorbance is read on an automated plate reader at a wavelength of 515 nm. For suspension cells, the methodology is the same except that the assay is terminated by fixing settled cells at the bottom of the wells by gently adding 50 ml of 80% TCA (final concentration, 16% TCA). Using the absorbance measurements [time zero, (Tz), control growth, (C), and test growth in the presence of compound (Ti)], the percentage growth is calculated for each compound. Percentage growth inhibition is calculated as: [(Ti – Tz)/(C – Tz)] x 100 for concentrations for which Ti >/=Tz. [(Ti – Tz)/Tz] x 100 for concentrations for which Ti < Tz.

[2] = test system: TK-10; conditions: Homo sapiens; TK-10 (renal cancer), single dose 10^−5 M, 48 h; read-out: Growth inhibition percentage
Description: as §1

[3] = test system: UACC-257; conditions: Homo sapiens; UACC-257 (melanoma), single dose 10^−5 M, 48 h; read-out: Growth inhibition percentage
Description: as §1

[4] = test system: HL-60(TB); conditions: Homo sapiens; HL-60(TB) (leukemia), single dose 10^−5 M, 48 h; read-out: Growth inhibition percentage
Description: as §1

[5] = test system: NCI-H522; conditions: Homo sapiens; NCI-H522 (non-small cell lung cancer), single dose 10^−5 M, 48 h; read-out: Growth inhibition percentage
Description: as §1

[6] = test system: SNB-75; conditions: Homo sapiens; SNB-75 (CNS cancer), single dose 10^−5 M, 48 h; read-out: Growth inhibition percentage
Description: as §1

[7] = test system: SK-MEL-2; conditions: Homo sapiens; SK-MEL-2 (melanoma), single dose 10^−5 M, 48 h; read-out: Growth inhibition percentage
Description: as §1

[8] = test system: EKVX; conditions: Homo sapiens; EKVX (non-small cell lung cancer), single dose 10^−5 M, 48 h; read-out: Growth inhibition percentage
Description: as §1

[9] = test system: OVCAR-3; conditions: Homo sapiens; OVCAR-3 (ovarian cancer), single dose 10^−5 M, 48 h; read-out: Growth inhibition percentage
Description: as §1

[10] = test system: HT29; conditions: Homo sapiens, HT-29; HT29 (colon cancer), single dose 10^−5 M, 48 h; read-out: Growth inhibition percentage
Description: as §1

[11] = test system: HOP-92; conditions: Homo sapiens; HOP-92 (non-small cell lung cancer), single dose 10^−5 M, 48 h; read-out: Growth inhibition percentage
Description: as §1

[12] = test system: NCI/ADR-RES; conditions: Homo sapiens; NCI/ADR-RES (ovarian cancer), single dose 10^−5 M, 48 h; read-out: Growth inhibition percentage
Description: as §1

[13] = test system: A549/ATCC; conditions: Homo sapiens; A549/ATCC (non-small cell lung cancer), single dose 10^−5 M, 48 h; read-out: Growth inhibition percentage
Description: as §1

[14] = test system: DU-145; conditions: Homo sapiens; DU-145 (prostate cancer), single dose 10^−5 M, 48 h; read-out: Growth inhibition percentage
Description: as §1

[15] = test system: SK-MEL-28; conditions: Homo sapiens; SK-MEL-28 (melanoma), single dose 10^−5 M, 48 h; read-out: Growth inhibition percentage
Description: as §1

[16] = test system: ACHN; conditions: Homo sapiens; ACHN (renal cancer), single dose 10^−5 M, 48 h; read-out: Growth inhibition percentage
Description: as §1

[17] = test system: SF-268; conditions: Homo sapiens; SF-268 (CNS cancer), single dose 10^−5 M, 48 h; read-out: Growth inhibition percentage
Description: as §1

[18] = test system: CCRF-CEM; conditions: Homo sapiens; CCRF-CEM (leukemia), single dose 10^−5 M, 48 h; read-out: Growth inhibition percentage
Description: as §1

[19] = test system: K-562; conditions: Homo sapiens, K562; K-562 (leukemia), single dose 10^−5 M, 48 h; read-out: Growth inhibition percentage
Description: as §1

[20] = test system: RPMI-8226; conditions: Homo sapiens; RPMI-8226 (leukemia), single dose 10^−5 M, 48 h; read-out: Growth inhibition percentage
Description: as §1

[21] = test system: IGROV1; conditions: Homo sapiens, IGROV-1; IGROV1 (ovarian cancer), single dose 10^−5 M, 48 h; read-out: Growth inhibition percentage
Description: as §1

Row | Compound | inhibition at 10 µM [1] | inhibition at 10 µM [2] | inhibition at 10 µM [3] | inhibition at 10 µM [4] | inhibition at 10 µM [5] | inhibition at 10 µM [6] | inhibition at 10 µM [7] | inhibition at 10 µM [8] | inhibition at 10 µM [9] | inhibition at 10 µM [10] | inhibition at 10 µM [11] | inhibition at 10 µM [12] | inhibition at 10 µM [13] | inhibition at 10 µM [14] | inhibition at 10 µM [15] | inhibition at 10 µM [16] | inhibition at 10 µM [17] | inhibition at 10 µM [18] | inhibition at 10 µM [19] | inhibition at 10 µM [20] | further results
1 | Cc1ccc(Nc2ncnc3c2c(C)nn3-c2ccc(F)cc2)cc1 [Compound 7c, 1–(4-Fluorophenyl)-3-methyl-N-(p-tolyl)-1H-pyrazolo[3,4-d]-pyrimidin-4-amine] | 1.34% | 9.04% | -7.62% | 16% | 11% | -5.2% | 10.9% | 3.39% | -6.58% | 11.7% | 3.79% | -6.46% | 3.08% | -8.97% | -11.1% | -12.2% | 1.06% | -8.18% | 0.26% | -4.47% | inhibition at 10 µM [21]: 1.54%
2 | Cc1nn(-c2ccc(F)cc2)c2ncnc(Nc3ccc(F)c(Cl)c3)c12 [Compound 7d, N-(3-Chloro-4-fluorophenyl)-1–(4-fluorophenyl)-3-methyl-1H-pyrazolo[3,4-d] pyrimidin-4-amine] | 1.79% | -6.68% | -1.41% | 15% | 10.4% | 25% | 2.61% | 14.5% | 9.57% | 14.4% | 22.8% | 5.13% | 40.5% | -3.13% | -4.63% | 60.4% | 3.94% | 0.7% | 1.78% | 9.77% | inhibition at 10 µM [21]: 27.6%
3 | Cc1nn(-c2ccc(F)cc2)c2ncnc(N3CCOCC3)c12 [Compound 8a, 1–(4-Fluorophenyl)-3-methyl-4-morpholino-1H-pyrazolo[3,4-d]pyrimidine] | 2.41% | 9.75% | -5.9% | 22.5% | 8.03% | 0.92% | 1.49% | 19.5% | -5.65% | 7.56% | 9.27% | -6.35% | -0.09% | -7.7% | -12.6% | -10.3% | -0.79% | 2.31% | -3.68% | 2% | inhibition at 10 µM [21]: -3.29%
4 | Cc1nn(-c2ccc(F)cc2)c2ncnc(N3CCN(c4ccc(Cl)cc4)CC3)c12 [Compound 8c, 4–(4-(4-Chlorophenyl)piperazin-1-yl)-1–(4-fluorophenyl)-3-methyl-1H-pyrazolo[3,4-d]pyrimidine] | 3.74% | -30.9% | -0.44% | 25.5% | 8.23% | 0.02% | 9.37% | 20.6% | 1.21% | 5.97% | 15.9% | 6.62% | -3.31% | -5.88% | -3.74% | 2.13% | 4.51% | -8.74% | 11.4% | -8.37% | inhibition at 10 µM [21]: 25.6%
